Where no end group is shown, it is not given here.
Columns and labels:
[1] = test system: subjects with knee OA; details: cited from earlier work
[2] = test system: human and rat bone cells; details: human and rat/murine orthologues; cited from earlier work
[3] = target: integrin αVβ3 expressed by osteocytes (Homo sapiens, UniProt P05106+P06756); details: cited from earlier work
[4] = test system: subjects with bilateral knee osteoarthritis; details: human, in vivo
Method: Eighteen (18) orthopedic, rheumatologic and family practice centers in the U.S. participated in the study.
On the first dosing day, the randomized subjects were assessed by physical examinations and vital signs. Further, they completed the Knee injury and Osteoarthritis Outcome Score (KOOS), which includes the Western Ontario and McMaster Universities Osteoarthritis Index (WOMAC). The KOOS questionnaire assesses knee-specific activities of daily living, sports and recreation, knee-related quality of life, other symptoms such as stiffness, and knee pain. […] After assessments were completed, subjects received one intra-articular injection in each knee, with each injection prepared from the vial(s) marked for that knee. […] Subjects were monitored for adverse events during the injections and for a few hours after the injections. Vital signs were also monitored after the injections.
On the 7th, 14th, and 21st days after the first dosing, subjects received the second, third, and fourth (last) dosing of the same study materials, respectively. Safety and adverse event assessments were obtained as on the first dosing day.
Subjects returned to their respective study sites at 3, 6 and 12 months after the first dosing day for follow-up evaluations. In addition, the study sites monitored the subject's condition through telephone contact 9 months after the first dosing day. During the 3, 6, and 12 months post-treatment, subjects were evaluated on site with physical examinations, vital signs, serum chemistries, as well as completing patient-reported outcomes including the KOOS. Adverse events and concomitant medications were recorded. MRIs of both knees were obtained during the 6 and 12-month visits.

[5] = test system: subjects with knee OA; details: cited from earlier work; remark: listed apart in the source

integrin αVβ3 expressed by osteocytes, sequence (P06756 31-889 limits assumed): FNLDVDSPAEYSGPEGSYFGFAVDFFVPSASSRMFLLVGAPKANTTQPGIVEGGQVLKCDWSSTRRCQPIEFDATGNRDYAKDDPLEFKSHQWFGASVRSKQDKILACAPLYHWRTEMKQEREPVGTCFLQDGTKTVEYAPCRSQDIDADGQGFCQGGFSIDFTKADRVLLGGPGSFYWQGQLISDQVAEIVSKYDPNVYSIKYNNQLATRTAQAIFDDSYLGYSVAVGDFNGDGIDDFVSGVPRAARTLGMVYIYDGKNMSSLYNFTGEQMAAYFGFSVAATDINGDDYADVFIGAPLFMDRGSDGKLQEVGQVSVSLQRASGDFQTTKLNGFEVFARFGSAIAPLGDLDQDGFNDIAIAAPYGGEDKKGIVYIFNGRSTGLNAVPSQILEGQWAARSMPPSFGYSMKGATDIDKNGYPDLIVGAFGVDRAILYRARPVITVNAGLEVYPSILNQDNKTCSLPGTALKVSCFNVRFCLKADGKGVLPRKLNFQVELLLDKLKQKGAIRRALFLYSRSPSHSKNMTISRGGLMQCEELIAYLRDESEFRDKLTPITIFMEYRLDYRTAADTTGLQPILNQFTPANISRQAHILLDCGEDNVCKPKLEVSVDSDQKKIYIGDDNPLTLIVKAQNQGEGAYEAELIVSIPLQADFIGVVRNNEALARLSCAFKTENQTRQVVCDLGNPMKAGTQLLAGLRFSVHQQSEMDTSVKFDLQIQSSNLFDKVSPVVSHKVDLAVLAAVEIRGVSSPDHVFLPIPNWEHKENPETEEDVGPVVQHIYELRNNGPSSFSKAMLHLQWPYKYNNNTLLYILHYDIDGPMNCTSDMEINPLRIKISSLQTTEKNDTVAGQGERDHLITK
integrin αVβ3 expressed by osteocytes, sequence (P06756 891-1048 limits assumed): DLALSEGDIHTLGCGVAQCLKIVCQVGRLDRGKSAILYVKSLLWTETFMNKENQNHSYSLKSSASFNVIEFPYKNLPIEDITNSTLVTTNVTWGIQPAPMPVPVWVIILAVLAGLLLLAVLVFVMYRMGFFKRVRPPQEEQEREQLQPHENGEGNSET
integrin αVβ3 expressed by osteocytes, sequence (P05106 27-788): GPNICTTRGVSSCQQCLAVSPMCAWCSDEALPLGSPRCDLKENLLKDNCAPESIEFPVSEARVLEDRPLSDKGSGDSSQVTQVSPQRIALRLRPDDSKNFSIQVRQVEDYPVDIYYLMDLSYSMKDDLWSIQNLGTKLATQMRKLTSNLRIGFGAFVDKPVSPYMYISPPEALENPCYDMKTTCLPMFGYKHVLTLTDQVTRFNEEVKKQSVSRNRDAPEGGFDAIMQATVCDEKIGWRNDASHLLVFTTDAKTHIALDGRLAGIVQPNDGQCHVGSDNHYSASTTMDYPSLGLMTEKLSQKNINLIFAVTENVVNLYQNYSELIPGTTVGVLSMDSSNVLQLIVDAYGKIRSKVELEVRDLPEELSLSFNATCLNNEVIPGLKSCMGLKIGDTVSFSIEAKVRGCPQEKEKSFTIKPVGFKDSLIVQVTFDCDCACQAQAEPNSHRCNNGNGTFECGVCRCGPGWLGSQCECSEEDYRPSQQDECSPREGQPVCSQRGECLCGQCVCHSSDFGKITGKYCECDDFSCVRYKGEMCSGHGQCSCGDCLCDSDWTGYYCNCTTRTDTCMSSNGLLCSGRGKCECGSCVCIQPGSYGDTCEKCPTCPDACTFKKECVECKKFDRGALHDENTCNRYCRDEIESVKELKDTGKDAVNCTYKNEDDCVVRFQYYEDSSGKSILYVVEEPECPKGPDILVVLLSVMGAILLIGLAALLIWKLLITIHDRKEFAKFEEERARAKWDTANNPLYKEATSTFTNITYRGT

O=P(O)(O)C(O)(Cc1cccnc1)P(=O)(O)O [risedronate]
Effects on pain ([1]; largest study, n=2483 (Bingham 2006)): favoring placebo over active drug

N#Cc1c(N(CC(=O)[O-])CC(=O)[O-])sc(C(=O)[O-])c1CC(=O)[O-].[Sr+2].[Sr+2] [strontium ranelate]
Risk of myocardial infarction ([1]; human, in vivo): increase the risk of myocardial infarction

PDLLVRGDNDVPPFSGDGQHFMH [SEQ ID No: 14]
Biological activities in bone cells of the other species [2]: interchangeably show biological activities in the bone cells of the other species

PDLQERGDNDISPFSGDGQPFKD [SEQ ID No: 12]
Binding to integrin αVβ3 [3]: selectively bind to integrin αVβ3

TDLQERGDNDISPFSGDGQPFKD [SEQ ID No: 10]
Safety and tolerability [4]: safe and well tolerated | Severe adverse events related to the peptide [4]: no severe adverse events | Treatment-related adverse events [4]: mild or moderate, transient

B1: Fibroblast Growth Factor-18 (protein, UniProt O76093 28-207, looked up)
Fibroblast growth factor 18: EENVDFRIHVENQTRARDDVSRKQLRLYQLYSRTSGKHIQVLGRRISARGEDGDKYAQLLVETDTFGSQVRIKGKETEFYLCMNRKGKLVGKPDGTSKECVFIEKVLENNYTALMSAKYSGWYVGFTKKGRPRKGPKTRENQQDVHFMKRYPKGQPELQKPFKYTTVTKRSRRIRPTHPA
notes: growth factor tested for cartilage regeneration in knee OA
Clinical outcomes such as knee function or pain vs placebo [5]: no significant improvement | Tibiofemoral cartilage thickness [5]: small but statistically significant increase
